# Where a name gives a salt, the structure may show the parent alone. Read-outs that look alike come from different tables or passages of the source.
# Assays:
# Assay type in all cases: biochemical
# [1] = molecular target: T1, MMP-1 (Homo sapiens, UniProt P03956); test: MMP-1 inhibition (in vitro Ki)
# T1 construct: made in house; host or cells: MMP-1-transfected HT-1080 cells (spent media)
# T1 sequence (P03956 100-469): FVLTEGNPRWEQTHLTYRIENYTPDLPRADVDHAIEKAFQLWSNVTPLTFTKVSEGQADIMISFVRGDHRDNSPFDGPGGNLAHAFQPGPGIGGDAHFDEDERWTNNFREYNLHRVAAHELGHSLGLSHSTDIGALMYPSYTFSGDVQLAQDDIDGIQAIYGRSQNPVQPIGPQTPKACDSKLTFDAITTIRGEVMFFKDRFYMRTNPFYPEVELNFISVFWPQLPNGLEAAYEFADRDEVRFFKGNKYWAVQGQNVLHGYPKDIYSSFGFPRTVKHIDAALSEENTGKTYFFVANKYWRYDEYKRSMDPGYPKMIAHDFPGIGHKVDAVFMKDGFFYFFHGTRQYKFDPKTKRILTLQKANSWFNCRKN
# [2] = molecular target: T2, MMP-9 (Homo sapiens, UniProt P14780); test: MMP-9 inhibition (in vitro Ki)
# T2 construct: made in house; host or cells: MMP-9-transfected HT1080 cells (spent media)
# [3] = molecular target: T3, MMP-14 (Homo sapiens, UniProt P50281); test: MMP-14 inhibition (in vitro Ki)
# T3 construct: The catalytic domain enzyme was expressed in E. coli inclusion bodies, solubilized in urea; made in house
# [4] = molecular target: T4, MMP-2 (Homo sapiens, UniProt P08253); test: MMP-2 inhibition (in vitro Ki)
# T4 construct: made in house; host or cells: MMP-2-transfected p2AHT2 cells
# T4 sequence (P08253 110-660): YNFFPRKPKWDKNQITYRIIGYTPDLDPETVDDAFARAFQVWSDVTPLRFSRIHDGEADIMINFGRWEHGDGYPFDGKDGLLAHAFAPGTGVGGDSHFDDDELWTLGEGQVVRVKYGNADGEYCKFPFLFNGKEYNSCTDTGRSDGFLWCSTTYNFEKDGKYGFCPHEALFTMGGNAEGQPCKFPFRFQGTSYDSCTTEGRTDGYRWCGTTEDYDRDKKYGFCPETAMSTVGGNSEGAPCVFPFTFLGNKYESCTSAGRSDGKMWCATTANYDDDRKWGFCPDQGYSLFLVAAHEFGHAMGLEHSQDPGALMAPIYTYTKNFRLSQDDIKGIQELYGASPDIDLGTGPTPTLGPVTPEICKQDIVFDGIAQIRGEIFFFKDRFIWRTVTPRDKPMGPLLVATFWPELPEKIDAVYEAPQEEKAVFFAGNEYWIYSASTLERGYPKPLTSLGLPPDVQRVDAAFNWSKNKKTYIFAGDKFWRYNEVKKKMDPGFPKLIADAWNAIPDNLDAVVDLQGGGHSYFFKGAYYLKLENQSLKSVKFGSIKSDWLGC
# [5] = molecular target: T5, MMP-13 (Homo sapiens, UniProt P45452); test: MMP-13 inhibition (in vitro Ki)
# T5 construct: made in house; host or cells: baculovirus / insect cells
# [6] = Table 9, read-out: MMP-1 Ki (IC-50)
# [7] = Table 9, read-out: MMP-9 Ki (IC-50)
# [8] = Table 9, read-out: MMP-14 Ki (IC-50)
# [9] = Table 9, read-out: MMP-2 Ki (IC-50)
# [10] = Table 9, read-out: MMP-13 Ki (IC-50)
# T2 sequence (P14780 107-707 limits assumed): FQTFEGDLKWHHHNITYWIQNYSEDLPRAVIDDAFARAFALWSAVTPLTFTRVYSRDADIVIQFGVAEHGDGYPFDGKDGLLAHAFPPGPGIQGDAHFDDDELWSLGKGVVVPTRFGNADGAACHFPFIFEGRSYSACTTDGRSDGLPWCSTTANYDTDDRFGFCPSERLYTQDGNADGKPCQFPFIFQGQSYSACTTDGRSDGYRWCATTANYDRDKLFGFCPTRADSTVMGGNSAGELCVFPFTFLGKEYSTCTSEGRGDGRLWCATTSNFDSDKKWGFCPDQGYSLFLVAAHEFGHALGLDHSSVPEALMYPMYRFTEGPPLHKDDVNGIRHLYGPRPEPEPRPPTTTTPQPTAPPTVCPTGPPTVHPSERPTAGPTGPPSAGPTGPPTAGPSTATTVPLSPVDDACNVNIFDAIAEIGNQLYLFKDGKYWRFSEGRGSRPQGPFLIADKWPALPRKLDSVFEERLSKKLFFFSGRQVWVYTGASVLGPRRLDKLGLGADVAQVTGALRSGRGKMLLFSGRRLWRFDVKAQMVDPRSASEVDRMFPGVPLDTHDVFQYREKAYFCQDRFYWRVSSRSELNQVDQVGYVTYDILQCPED
SMILES,"Ki [1, 6] [nM]","Ki [2, 7] [nM]","Ki [3, 8] [nM]","Ki [4, 9] [nM]","Ki [5, 10] [nM]","Ki ([1]; Table 8, read-out: MMP-1 Ki) [nM]","Ki ([2]; Table 8, read-out: MMP-9 Ki) [nM]","Ki ([3]; Table 8, read-out: MMP-14 Ki) [nM]","Ki ([4]; Table 8, read-out: MMP-2 Ki) [nM]","Ki ([5]; Table 8, read-out: MMP-13 Ki) [nM]"
C/C(COc1ccc(C2CCN(S(=O)(=O)C3(C(=O)NO)CCOCC3)CC2)nc1)=N/O [Example A169],5370,10.2,9300,3.5,4.53,–,–,–,–,–
O=C(NO)C1(S(=O)(=O)N2CCC(c3cnc(OCC4CC4)cn3)CC2)CCOCC1 [Example A151],> 10000,0.72,3100,1.34,1.53,–,–,–,–,–
O=C(NO)C1(S(=O)(=O)N2CCC(c3ccc(CCc4cccs4)cn3)CC2)CCOCC1 [Example A102],6280,3.84,2160,1.3,0.215,–,–,–,–,–
O=C(NO)C1(S(=O)(=O)N2CCC(c3cnc(CCC(F)(F)F)cn3)CC2)CCOCC1 [Example A72],> 10000,1.4,> 10000,3.8,2,–,–,–,–,–
"CCCCCCOC1CCN(S(=O)(=O)C2(C(=O)NO)CCOCC2)CC1 [Example A36, 4-(4-hexyloxy-piperidine-1-sulfonyl)-tetrahydro-pyran-4-carboxylic Acid Hydroxyamide]",–,–,–,–,–,> 10000,0.95,1940,3.51,5.92
CCOCc1ccc(C2CCN(S(=O)(=O)C3(C(=O)NO)CCOCC3)CC2)nc1 [Example A179],> 10000,0.49,4280,2.51,1.9,–,–,–,–,–
O=C(NO)C1(S(=O)(=O)N2CCC(c3cnc(CCC4CC4)cn3)CC2)CCOCC1 [Example A110],> 10000,1.03,9210,7.78,4.4,–,–,–,–,–
"O=C(NO)C1(S(=O)(=O)N2CCC(CCCCCC(F)(F)C(F)(F)F)CC2)CCOCC1 [Example A54, 4-[4-(6,6,7,7,7-pentafluoro-heptyl)-piperidine-1-sulfonyl]-tetrahydro-pyran-4-carboxylic Acid Hydroxyamide]",–,–,–,–,–,> 10000,0.81,3410,1.06,0.67
O=C(/C=C/C=C/C1CCN(S(=O)(=O)C2(C(=O)NO)CCOCC2)CC1)N1Cc2ccccc2C1 [Example A82],> 10000,8280,> 10000,1080,0.901,–,–,–,–,–
"O=C(NO)C1(S(=O)(=O)N2CCC(CCCCC(F)(F)C(F)(F)F)CC2)CCOCC1 [Example A53, 4-[4-(5,5,6,6,6-pentafluoro-hexyl)-piperidine-1-sulfonyl]-tetrahydro-pyran-4-carboxylic Acid Hydroxyamide]",–,–,–,–,–,2880,2.46,2360,1.1,2.45
CCCCCOC1CCN(S(=O)(=O)C2(C(=O)NO)CCOCC2)CC1 [Example A36A],–,–,–,–,–,> 10000,2.65,816,6,9.36
"O=C(NO)C1(S(=O)(=O)N2CCC(c3ccc(OCC(F)(F)F)cn3)CC2)CCOCC1 [Example A57, N-hydroxy-4-({4-[5-(2,2,2-trifluoroethoxy)pyridin-2-yl]piperidin-1-yl}sulfonyl)tetrahydro-2H-pyran-4-carboxamide Hydrochloride]",–,–,–,–,–,1570,0.48,2020,0.53,0.34
"O=C(NO)C1(S(=O)(=O)N2CCC(CCOCCCC(F)(F)F)CC2)CCOCC1 [Example A45, 4-{4-[2-(4,4,4-trifluoro-butoxy)-ethyl]-piperidine-1-sulfonyl}-tetrahydro-pyran-4-carboxylic Acid Hydroxyamide]",–,–,–,–,–,> 10000,16.8,> 10000,23.6,12.2
O=C(NCCCCC1CCN(S(=O)(=O)C2(C(=O)NO)CCOCC2)CC1)C1(c2ccccc2)CC1 [Example A115],> 10000,1350,> 10000,98.5,0.81,–,–,–,–,–
O=C(NO)C1(S(=O)(=O)N2CCC(CCCc3nc(-c4ccc(OC(F)(F)F)cc4)no3)CC2)CCOCC1 [Example A160],> 10000,613,> 10000,529,40.9,–,–,–,–,–
COCCN1CCC(C(=O)NO)(S(=O)(=O)N2CCC(c3ccc(CCC(F)(F)C(F)(F)F)cn3)CC2)CC1 [Example A182],> 10000,0.39,5890,0.93,0.3,–,–,–,–,–

# Other lines, results leading:
"Ki [1, 6] [nM]","Ki [2, 7] [nM]","Ki [3, 8] [nM]","Ki [4, 9] [nM]","Ki [5, 10] [nM]","Ki ([1]; Table 8, read-out: MMP-1 Ki) [nM]","Ki ([2]; Table 8, read-out: MMP-9 Ki) [nM]","Ki ([3]; Table 8, read-out: MMP-14 Ki) [nM]","Ki ([4]; Table 8, read-out: MMP-2 Ki) [nM]","Ki ([5]; Table 8, read-out: MMP-13 Ki) [nM]",SMILES
3420,553,> 10000,82.3,3,–,–,–,–,–,O=C(CCCCC1CCN(S(=O)(=O)C2(C(=O)NO)CCOCC2)CC1)N1CCOCC1 [Example A85]
924,0.55,421,0.23,0.21,–,–,–,–,–,CCn1nnc(-c2ccc(N3CCN(S(=O)(=O)C4(C(=O)NO)CCOCC4)CC3)cc2)n1 [Example A186]
650,10.8,4540,2.96,2.81,–,–,–,–,–,CCC(F)(F)c1ccc(C2CCN(S(=O)(=O)C3(C(=O)NO)CCOCC3)CC2)nc1 [Example A129]
3040,0.59,7290,3.42,3.11,–,–,–,–,–,CCC(CC)(C(=O)NO)S(=O)(=O)N1CCC(c2ccc(OCC3CC3)cn2)CC1 [Example A124]
1110,726,> 10000,240,1.1,–,–,–,–,–,CN(C(=O)CCCCC1CCN(S(=O)(=O)C2(C(=O)NO)CCOCC2)CC1)C1CCCCC1 [Example A96]
4550,9.5,> 10000,3.14,1.57,–,–,–,–,–,CCCC(F)(F)c1ccc(C2CCN(S(=O)(=O)C3(C(=O)NO)CCOCC3)CC2)nc1 [Example A156]
363,3.39,2880,3.84,1.08,–,–,–,–,–,COC(=O)CCCCC1CCN(S(=O)(=O)C2(C(=O)NO)CCOCC2)CC1 [Example A103]
4910,0.16,1280,0.42,0.15,–,–,–,–,–,O=C(NO)C1(S(=O)(=O)N2CCC(c3ccc(CCC4CCC4)cn3)CC2)CCOCC1 [Example A120]
4070,0.36,3620,1.31,1.24,–,–,–,–,–,O=C(NO)C1(S(=O)(=O)N2CCC(c3ccc(OCC4CC4)cn3)CC2)CCOCC1 [Example A172]
630,55.5,4520,3.25,0.16,–,–,–,–,–,O=C(NCCCCC1CCN(S(=O)(=O)C2(C(=O)NO)CCOCC2)CC1)C(=O)c1cccs1 [Example A108]
1260,0.32,221,0.37,0.09,–,–,–,–,–,CCCCC#Cc1ccc(C2CCN(S(=O)(=O)C3(C(=O)NO)CCOCC3)CC2)nc1 [Example A137]
1710,0.81,184,0.08,0.15,–,–,–,–,–,CCc1nc(-c2ccc(N3CCN(S(=O)(=O)C4(C(=O)NO)CCOCC4)CC3)cc2)no1 [Example A176]
2340,0.15,401,0.5,0.17,–,–,–,–,–,CCCC#Cc1ccc(C2CCN(S(=O)(=O)C3(C(=O)NO)CCOCC3)CC2)nc1 [Example A139]
3310,54.7,6200,7.61,3.89,–,–,–,–,–,O=C(NO)C1(S(=O)(=O)N2CCC(c3ccc(-n4ccnc4)cn3)CC2)CCOCC1 [Example A188]
2300,0.92,1230,0.46,2.08,–,–,–,–,–,Cn1nnc(-c2ccc(C3CCN(S(=O)(=O)C4(C(=O)NO)CCOCC4)CC3)cc2)n1 [Example A202]

# Reference: patent publication US20050209278A1, “Piperidinyl- and piperazinyl-sulfonylmethyl hydroxamic acids and their use as protease inhibitors” (priority 2002, published 2005)
